Patent publication US12172941B2, “Organic compound and organic light-emitting device” (CANON KABUSHIKI KAISHA, priority 2020, dated 2024)

Legend:
Assay type in all cases: physicochemical
[1] = Photoluminescence emission spectrum of toluene solution (F-4500); conditions: toluene solution 1×10^−5 mol/l, room temperature, excitation 350 nm
Protocol: The measurement was performed by measuring photoluminescence with F-4500 manufactured by Hitachi, Ltd. at room temperature and at an excitation wavelength of 350 nm.

[2] = Absolute PL quantum yield in solution (C9920-02); conditions: room temperature, relative value
[3] = Difference between decomposition temperature (TG/DTA) and sublimation temperature; conditions: decomposition: 5% weight loss in TG/DTA; sublimation: vacuum 1×10^−1 Pa, Ar flow
From the text: The decomposition temperature is a temperature at which the weight loss reaches 5% in TG/DTA measurement. […] In the toluene solubility test performed in a nitrogen atmosphere under reflux by heating while stirring, dissolution was visually inspected and was expressed as a relative value with respect to the amount of toluene (1.0) used to completely dissolve the exemplary compound A1.

Q: Which Emission wavelength max [1] does the source give for c1ccc(-c2cc3c4cc5c(cc4c(-c4ccccc4)cc3c3cc4c(cc23)-c2cccc3cccc-4c23)-c2cccc3cccc-5c23)cc1 [Comparative compound (1)] here?
A: Its Emission wavelength max is 449.

Q: What about the λmax [1] of the same molecule?
A: The λmax was 449.

Q: What about the Quantum yield ([2]; exemplary compound A17 = 1.00) of the same molecule?
A: Its Quantum yield is 0.95.

Q: And the Quantum yield ([2]; exemplary compound D2 = 1.00)?
A: Its Quantum yield is 0.95.

Q: With c1ccc(-c2c3c(c(-c4ccccc4)c4c2ccc2c5cc6c(cc5ccc24)-c2cccc4cccc-6c24)-c2cccc4cccc-3c24)cc1 [Comparative compound (2)] as the molecule, how does the Decomposition temperature-sublimation temperature [3] read?
A: Its Decomposition temperature-sublimation temperature is 70 °C.

Q: Which Decomposition temperature-sublimation temperature [3] does the source give for c1ccc(-c2c3c(c(-c4ccccc4)c4c2ccc2c5cc6c(cc5ccc24)-c2cccc4cccc-6c24)-c2cc4ccccc4c4cccc-3c24)cc1 [Exemplary compound A1] here?
A: Its Decomposition temperature-sublimation temperature is 90 °C.

Q: For c1ccc(-c2cc3c4cc5c(cc4c(-c4ccccc4)cc3c3cc4c(cc23)-c2cccc3cccc-4c23)-c2cccc3c2c-5cc2ccccc23)cc1 [Exemplary compound A17], which Emission wavelength max [1] is on record?
A: Its Emission wavelength max is 449.

Q: What about the Quantum yield ([2]; exemplary compound A17 = 1.00) of the same molecule?
A: Its Quantum yield is 1.00.

Q: For Cc1ccc(-c2cc3c4cc5c(cc4c(-c4ccc(C)cc4)cc3c3cc4c(cc23)-c2cc3ccccc3c3cccc-4c23)-c2cc3ccccc3c3cccc-5c23)cc1 [Exemplary compound D2], which λmax [1] is on record?
A: The λmax was 453.

Q: What about the Quantum yield ([2]; exemplary compound D2 = 1.00) of the same molecule?
A: The Quantum yield was 1.00.
